The numbers were not newly measured in patent US20030082102A1, “Radioactive platinum complexes for cancer treatment” (priority 2001, published 2003), which cites them from elsewhere.

Like-named read-outs stand apart in the source and are kept apart here.

One data set relates to tissue culture. The following applies: non-radioactive drug with external radiation.
For data set [1] the following is noted: tracer quantities.
A further data set deals with mammalian cells. To be noted: for radiopotentiation / potentiation of chemotherapy effectiveness: cell culture, Howell 1994.

Regarding `N.N.O=C([O-])C1(C(=O)[O-])CCC1.[Pt+2]` [Carboplatin, 1,1-Cyclobutanedicarboxylate diamine platinum (II)], the “Radiation enhancer in vitro?” value with tissue culture is “Yes”.

Take `CC(C)N.CC(C)N.[Cl-].[Cl-].[OH-].[OH-].[Pt]` [Iproplatin, Cis-dichloro,trans-dihydroxybis-isopropylamine platinum (IV)]: in the data set on tissue culture, the “Radiation enhancer in vitro?” value is recorded as “Yes”. `CC(=O)[O][Pt]([NH2])([Cl])([Cl])([NH]C1CCCCC1)[O]C(C)=O` [JM216]: the “Radiation enhancer in vitro?” value in the data set with tissue culture was “Yes”. Regarding `[NH2][Pt]([NH2])([Cl])[Cl]` [^195mPt-cisplatinum], the “tumor drug level (tumor uptake)” value in data set [1] (intra-arterial infusion, patients with nonresectable hepatoma) is 34-55 % of given dose; in data set [1] (intravenous route), < 5 % of given dose. For the same compound, the “radiotoxicity above and beyond chemical toxicity” value in the data set with mammalian cells (cell culture studies, Howell et al 1994) was “no radiotoxicity above and beyond its chemical toxicity”. In the data set on mammalian cells, the “radiopotentiation / potentiation of chemotherapy effectiveness” value is “no potentiation of chemotherapy effectiveness”. Regarding `N.N.[Cl][Pt+2][Cl]` [^195mPt-trans-cisplatinum], the “radiopotentiation / potentiation of chemotherapy effectiveness” value with mammalian cells was “showed radiopotentiation”.
